The target in one data set is Toll-like receptor 8 (Homo sapiens (Human), UniProt Q9NR97). Nature of the data set: Toll-like receptor 8 in vitro receptor binding activity screen (HEK-blue hTLR8 cell, alkaline phosphatase/Quanti-Blue readout). Conditions: HEK-blue hTLR8 cell, head-to-head test; read-out: TLR8 EC50. The format is cell-based. As for the experimental part:
(§1) Toll-Like Receptor 7 and Toll-Like Receptor 8 In Vitro Receptor Binding Activity Screen
(§2) HEK-blue hTLR7 cell and HEK-blue hTLR8 cell (available from InvivoGen)
(§3) 1. Preparation of 96-well compound plate:
(§4) The compounds were gradient diluted with DMSO in 3-fold using liquid work station POD starting at a concentration of 10 mmol/L and 10 points were diluted (2nd column to 11th column, and each point was duplicated). At 12th column, 1 μL of 5 mg/mL positive compound R848 was added as positive control; and at 1st column, 1 μL of DMSO was added as negative control. Each well contained 1 μL of DMSO.
(§5) 2. The cells in culture flask were collected and the cell density was diluted to 250,000 cells/mL.
(§6) 3. 200 μL (50,000 cells/well) of cell suspension was added into prepared compound plate and the final concentration of DMSO in each well was 0.5%.
(§7) 4. The culture plates containing cells and the compounds were incubated in CO2 incubator for 24 h at 37° C., 5% CO2.
(§8) 5. After 24 h incubation, 20 μL of supernatant was removed from each well to a 96-well transparent assay plate. To each well of the assay plate was added 180 μL of Quanti-Blue reagent and the plate was incubated in an incubator at 37° C., 5% CO2 for 1 h.
(§9) 6. After 1 h, the content of alkaline phosphatase in 20 μL of supernatant was determined using Microplate Reader OD650.
(§10) 7. EC50 of each compound was obtained with Prism software.

Data set [1] has as its system human peripheral blood mononuclear cells (PBMC). Nature of the data set: Peripheral blood mononuclear cell assay (cytokine induction, CBA). In kind it is cell-based. The settings on record: 24 h, human PBMC, 24 h; for minimal effective concentration: Homo sapiens, PBMC, read-out: INF-α MEC. The protocol: Peripheral Blood Mononuclear Cell Assay The purpose of this example is to determine the expression level of cytokines 24 h after stimulation to human peripheral blood mononuclear cells (PBMC) with the compounds. The cell supernatant was assayed without dilution and the levels of IFN-α and TNF-α were directly determined. The compound was firstly formulated into 20 mM DMSO stock solution and was gradient diluted with cell medium in 10-fold with the total number of 11 diluting points. The compounds in 9 diluting points (the highest concentration was 200 μmol/L) were added into 96-well plate with 50 μL in each well. Fresh human peripheral blood mononuclear cells were inoculated, with 150 μL in each well containing 450,000 cells. The cell culture plate was incubated in an incubator at 37° C., 5% CO2 for 24 h. After incubation, the culture plate was centrifuged at 1200 rpm for 5 min and the supernatant was collected and stored at −20° C. for determination. The determination of cytokine was performed using Cytometric Bead Array (CBA) of BD-Pharmingen on flow cytometer. Using the above determining method, the lowest drug concentration stimulating cytokine level which is over 3 times greater than the lowest detectable limit was designated as the MEC (Minimal Effective Concentration) value in the cytokine stimulating test.

Another data set in a line: in vivo. The settings on record: male, SD, rat; for half-life: read-out: T½ (converted). The protocol: 12 male SD rats were divided into 4 groups with 3 SD rats in each group. […] […] Each rat with oral administration was collected for whole blood samples which were prepared into plasma 15, 30 min and 1, 2, 4, 8, 24 h continuously after administration.
The subject of the next data set is duck hepatitis b virus. Nature of the data set: In vivo pharmacodynamics in duckling model infected with hepatitis B virus. Set-up: species or system Beijing ducks. As for the experimental part: In Vivo Pharmacodynamics in Duckling Model Infected with Hepatitis B Virus
Experimental design and procedures: Beijing ducks of 1 day old were intravenously administered duck hepatitis b virus positive duck serum. After 7 days, the animals were administered according to grouping, 6 ducks in each group. Control group: normal saline. […] The samples were administered intragastricly: 20 mg/kg groups were administered once every third day (one administration every 3 days) and 5 mg/kg groups were administered once every day for 16 days. […] For control group infected with duck hepatitis b virus, solvent was used instead of drug. 7 days after infection, the blood was collected before administration (TO),8 days after administration (T8),16 days after administration (T16) and 3 day after ceasing administration (P3), and the duck serum was separated and frozen for storage. […] Duck serum DNA (DHBV-DNA) determination: different duck sera in a batch were determined for duck blood DHBV-DNA level with real time fluorescent quantitative PCR. Statistics analysis: paired and grouped analysis was used to calculate the significance of inhibition of drug on duck serum DHBV-DNA for assessment.

A further data set has as its target Toll-like receptor 7 (Homo sapiens (Human), UniProt Q9NYK1). Nature of the data set: Toll-like receptor 7 in vitro receptor binding activity screen (HEK-blue hTLR7 cell, alkaline phosphatase/Quanti-Blue readout). In kind it is cell-based. Conditions: HEK-blue hTLR7 cell, read-out: TLR7 EC50. As for the experimental part:
as §1, §2, §3, §4, §5, §6, §7, §8, §9, §10

Setting [2] is: Minimal Effective Concentration.

As usually defined, the EC50 is the concentration at which the effect is half-maximal. A word on the AUC(0-inf): it is the area under the concentration-time curve extrapolated to infinity. In general, AUC(0-t) refers to the area under the concentration-time curve up to a stated or last time point. The term Cmax denotes the highest concentration seen after dosing. For orientation: Vd means a proportionality between amount in the body and measured concentration, not a real space. The clearance is the rate of elimination divided by the concentration. Read a low clearance as a low capacity for elimination.

Read-outs that look alike come from different tables or passages of the source.

Toll-like receptor 7, sequence (Q9NYK1 27-1049): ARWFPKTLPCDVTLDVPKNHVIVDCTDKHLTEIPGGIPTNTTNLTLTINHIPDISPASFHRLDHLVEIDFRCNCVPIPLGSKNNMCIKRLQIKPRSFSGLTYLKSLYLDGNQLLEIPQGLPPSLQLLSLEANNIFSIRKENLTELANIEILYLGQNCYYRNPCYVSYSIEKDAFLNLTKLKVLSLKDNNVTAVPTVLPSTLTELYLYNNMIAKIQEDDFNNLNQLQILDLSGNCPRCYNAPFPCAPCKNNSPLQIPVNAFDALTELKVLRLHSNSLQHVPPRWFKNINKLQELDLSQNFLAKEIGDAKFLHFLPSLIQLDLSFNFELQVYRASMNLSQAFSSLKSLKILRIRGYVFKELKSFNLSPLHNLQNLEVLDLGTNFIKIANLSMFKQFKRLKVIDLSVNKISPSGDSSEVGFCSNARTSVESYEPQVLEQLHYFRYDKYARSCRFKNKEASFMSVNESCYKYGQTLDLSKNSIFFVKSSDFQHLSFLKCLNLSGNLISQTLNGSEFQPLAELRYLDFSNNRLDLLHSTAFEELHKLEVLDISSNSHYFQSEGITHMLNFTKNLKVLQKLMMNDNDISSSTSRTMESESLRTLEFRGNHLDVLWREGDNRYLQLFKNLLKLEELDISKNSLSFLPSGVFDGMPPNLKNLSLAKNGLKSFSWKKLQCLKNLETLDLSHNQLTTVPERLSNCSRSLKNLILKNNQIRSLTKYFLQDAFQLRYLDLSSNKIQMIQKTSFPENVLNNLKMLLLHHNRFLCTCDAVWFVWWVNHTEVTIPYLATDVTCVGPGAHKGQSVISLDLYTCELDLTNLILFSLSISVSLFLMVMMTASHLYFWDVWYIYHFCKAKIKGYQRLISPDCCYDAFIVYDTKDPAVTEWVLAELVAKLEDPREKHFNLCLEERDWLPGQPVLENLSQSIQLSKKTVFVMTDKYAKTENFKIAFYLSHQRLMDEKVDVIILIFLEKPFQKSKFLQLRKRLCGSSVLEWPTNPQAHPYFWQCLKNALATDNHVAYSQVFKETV
Toll-like receptor 8, sequence (Q9NR97 27-1041): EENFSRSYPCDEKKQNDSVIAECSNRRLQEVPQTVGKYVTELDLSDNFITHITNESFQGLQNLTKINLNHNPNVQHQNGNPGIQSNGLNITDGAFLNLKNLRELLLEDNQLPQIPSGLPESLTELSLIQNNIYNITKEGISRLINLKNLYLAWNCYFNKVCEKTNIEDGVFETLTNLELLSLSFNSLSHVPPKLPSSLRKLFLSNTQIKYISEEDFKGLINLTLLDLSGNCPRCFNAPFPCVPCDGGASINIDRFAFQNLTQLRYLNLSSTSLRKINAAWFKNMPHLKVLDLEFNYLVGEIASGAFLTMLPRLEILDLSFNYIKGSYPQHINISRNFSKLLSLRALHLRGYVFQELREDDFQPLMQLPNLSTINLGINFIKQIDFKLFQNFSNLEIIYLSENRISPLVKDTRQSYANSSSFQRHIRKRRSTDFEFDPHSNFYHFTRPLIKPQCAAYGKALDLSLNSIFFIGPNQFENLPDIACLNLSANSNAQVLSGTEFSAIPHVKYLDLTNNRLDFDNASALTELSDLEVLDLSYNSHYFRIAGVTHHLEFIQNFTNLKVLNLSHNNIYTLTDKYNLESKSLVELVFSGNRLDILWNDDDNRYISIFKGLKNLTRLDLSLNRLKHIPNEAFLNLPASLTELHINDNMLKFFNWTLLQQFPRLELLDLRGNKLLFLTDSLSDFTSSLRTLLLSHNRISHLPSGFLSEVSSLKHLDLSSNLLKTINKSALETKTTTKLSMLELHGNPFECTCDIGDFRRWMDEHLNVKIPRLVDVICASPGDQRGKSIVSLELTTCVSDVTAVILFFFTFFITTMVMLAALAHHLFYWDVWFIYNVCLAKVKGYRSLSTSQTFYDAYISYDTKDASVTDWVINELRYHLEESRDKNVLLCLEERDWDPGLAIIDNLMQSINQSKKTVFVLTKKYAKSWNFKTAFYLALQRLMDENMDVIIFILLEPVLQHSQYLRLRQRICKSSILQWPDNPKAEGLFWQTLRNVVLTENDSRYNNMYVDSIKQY

As to `CCCCOc1nc(N)c2c(n1)N(Cc1cccc(CN3CCCC3)c1)CC(=O)N2` [GS-9620, reference compound], the EC50 on Toll-like receptor 8 amounted to 7.87 µM; at Toll-like receptor 7 (head-to-head test), 0.517 µM. Also, the minimal effective concentration in data set [1] (head-to-head test) is 0.05 µM. For the same compound, the “TNF-α MEC” value in data set [1] (head-to-head test) amounted to 500 nM. Moreover, the half-life was 2.57 h in “in vivo” (1 mg/kg, IV 1 mpk) and 2.24 h in the data set “in vivo” (5 mg/kg, PO 5 mpk). Besides, the AUC(0-inf) in the data set “in vivo” (iv, 1 mg/kg) stood at 0.201 µM·h; in “in vivo” (po, 5 mg/kg), 0.359 µM·h. Also, the AUC(0-t) in the data set “in vivo” (iv, 1 mg/kg) amounted to 0.185 µM·h; in “in vivo” (po, 5 mg/kg), 0.316 µM·h. The Cmax stood at 220 nM in “in vivo” (iv, 1 mg/kg) and 164 nM in the data set “in vivo” (po, 5 mg/kg). Moreover, in the data set “in vivo” (iv, 1 mg/kg), the Vd was 32.8 L/kg. Besides, the clearance in the data set “in vivo” (iv, 1 mg/kg) was determined as 205 mL/min/kg. In addition, the Mean plasma drug concentration in “in vivo” (iv, 1 mg/kg, 0.083 h) came to 170 nM; in “in vivo” (iv, 1 mg/kg, 0.25 h) it was 102 nM; in the data set “in vivo” (iv, 1 mg/kg, 0.5 h) it was 65.4 nM; in “in vivo” (iv, 1 mg/kg, 1 h) it was 48.1 nM; in “in vivo” (iv, 1 mg/kg, 2 h), 21.6 nM; in the data set “in vivo” (iv, 1 mg/kg, 4 h), 13 nM. The Mean plasma drug concentration in the data set “in vivo” (iv, 1 mg/kg, 8 h) was determined as 4.17 nM; in “in vivo” (po, 5 mg/kg, 0.25 h), 56.3 nM; in “in vivo” (po, 5 mg/kg, 0.5 h), 33.2 nM; in “in vivo” (po, 5 mg/kg, 1 h), 83.4 nM; in “in vivo” (po, 5 mg/kg, 2 h), 136 nM; in “in vivo” (po, 5 mg/kg, 4 h), 16.7 nM. In addition, in “in vivo” (po, 5 mg/kg, 8 h), the Mean plasma drug concentration is 9.49 nM. Also, the “Duck serum HBV-DNA inhibition %” value is given as 70.60 ± 47.66% in the data set on duck hepatitis b virus (5 mg/kg intragastric once every day for 16 days, P3); 98.66 ± 2.75 % with duck hepatitis b virus (5 mg/kg intragastric once every day for 16 days, T8); 78.02 ± 51.69% in the data set with duck hepatitis b virus (5 mg/kg intragastric once every day for 16 days, T16); −132.97 ± 352.35% in the data set on duck hepatitis b virus (20 mg/kg intragastric once every third day, P3 (3 days after ceasing administration)); 99.13 ± 1.83 % in the data set on duck hepatitis b virus (20 mg/kg intragastric once every third day, T8 (8 days after administration)); 98.26 ± 1.50 % in the data set with duck hepatitis b virus (20 mg/kg intragastric once every third day, T16 (16 days after administration)). Further, the “rebound of HBV-DNA replication” value in the data set with duck hepatitis b virus (20 mg/kg one administration every third day, 3 days after ceasing administration) is given as “rebound of HBV-DNA replication”.
With `CCCCOc1nc(N)c2[nH]cc(Cc3ccc4c(c3)CN(C(C)C)CC4)c2n1` [Example 31, 2-butoxy-7-((2-isopropyl-1,2,3,4-tetrahydroisoquinoline-7-yl)methyl)-5H-pyrrolo[3,2-d]pyrimidine-4-amine], in data set [1] (setting [2]), the minimal effective concentration was in the range of 0.001 to 0.01 µM. Further, the EC50 on Toll-like receptor 7 (24 h) lay in the range of 0.1 to 1 µM.
The corresponding values for `CCCCOc1nc(N)c2[nH]cc(Cc3ccc4c(c3)CNCC4)c2n1` [Example 28, 2-butoxy-7-((1,2,3,4-tetrahydroisoquinoline-7-yl)methyl)-5H-pyrrolo[3,2-d]pyrimidine-4-amine] are 0.001 to 0.01 µM and 0.1 to 1 µM.
The corresponding values for `CCCCOc1nc(N)c2[nH]cc(Cc3cccc(CN4CCCC4)c3)c2n1` [Example 4, 2-butoxy-7-(3-(pyrrolidine-1-ylmethyl)benzyl)-5H-pyrrolo[3,2-d]pyrimidine-4-amine] are 0.01 to 100 µM and 0.1 to 1 µM.
The corresponding values for `CCCCOc1nc(N)c2[nH]cc(Cc3ccc4c(c3)CN(CC)CC4)c2n1` [Example 30, 2-butoxy-7-((2-ethyl-1,2,3,4-tetrahydroisoquinoline-7-yl)methyl)-5H-pyrrolo[3,2-d]pyrimidine-4-amine] are 0.001 to 0.01 µM and 0.1 to 1 µM.
On to `CCCCOc1nc(N)c2[nH]cc(Cc3ccc(CN4CCCC4)nc3)c2n1` [Example 22, 2-butoxy-7-((6-(pyrrolidine-1-ylmethyl)pyridine-3-yl)methyl)-5H-pyrrolo[3,2-d]pyrimidine-4-amine], for which the minimal effective concentration in data set [1] (setting [2]) lay in the range of 0.001 to 0.01 µM. Further, the EC50 on Toll-like receptor 7 (24 h) was 0.1 to 1 µM.
The like results for `CCCCOc1nc(N)c2[nH]cc(Cc3ccc4c(c3)CN(C)CC4)c2n1` [Example 29, 2-butoxy-7-((2-methyl-1,2,3,4-tetrahydroisoquinoline-7-yl)methyl)-5H-pyrrolo[3,2-d]pyrimidine-4-amine] were, in that order, 1e-05 to 0.001 µM and 0.1 to 1 µM.
The like results for `CCCCOc1nc(N)c2[nH]c(C#N)c(Cc3ccc(CN4CCCC4)cc3)c2n1` [Example 42, 4-amino-2-butoxy-7-(4-(pyrrolidine-1-ylmethyl)benzyl)-5H-pyrrolo[3,2-d]pyrimidine-6-carbonitrile] were, in that order, 1e-05 to 0.001 µM and 0.001 to 0.1 µM.
Consider `CCCCOc1nc(N)c2[nH]cc(Cc3ccc(CN(C)C)cc3)c2n1` [Example 11, 2-butoxy-7-(4-((dimethylamino)methyl)benzyl)-5H-pyrrolo[3,2-d]pyrimidine-4-amine], for which the 50% effective concentration (EC50) on Toll-like receptor 7 (24 h) is 0.1 to 1 µM.
On the same count and under the same terms, for `CCCCOc1nc(N)c2[nH]cc(Cc3ccc(CN4CC(OC)C4)cc3)c2n1` [Example 15, 2-butoxy-7-(4-((3-methoxylazetidin-1-yl)methyl)benzyl)-5H-pyrrolo[3,2-d]pyrimidine-4-amine] the value was 0.1 to 1 µM.
